The structures appear in SMILES notation. pEC50: −log10 of the molar value.

This passage reports EC50 results from patent US20250171457A1, “NITROGEN-CONTAINING HETEROCYCLIC COMPOUND HAVING NRF2 ACTIVATION EFFECT” (CHUGAI SEIYAKU KABUSHIKI KAISHA, priority 2022, published 2025).

This experiment relates to Nrf2 transcriptional activity (pARE-Luc reporter) in HepG2 cells. Kind of experiment: In vitro Nrf2 transcriptional activity measurement by ARE-dependent reporter assay in HepG2 cell. Type of experiment: cell-based, human. The following applies: Homo sapiens; HepG2 cells transfected with pARE-Luc, 4 hours at 37° C.; luciferase activity of Example 1-54 or Example 17-23 at 3.75 μM defined as 100%. An outline of the steps:
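Luminescence readout (Bright-Glo) after 4 h, 37° C compound exposure of HepG2 cells carrying the ARE-luciferase vector pGL4.37. Each well converted to % response versus reference compound at 3.75 μM, and EC50 derived from dose-response curves.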
(In general: In a reporter assay the amount or activity of a reporter protein is the signal.)

As a reminder, the pEC50 is −log10 of the EC50, conventionally taken in molar units. In the case of `C[C@@H]1CN(c2cc(Cl)c(C(=O)N3COc4c(cccc4-c4cc(N5C6CCC5COC6)c(C(=O)O)cc4F)C3)c(Cl)c2)CCO1` [Compound 4-18, 4-[3-[2,6-Dichloro-4-[(2R)-2-methylmorpholin-4-yl]benzoyl]-2,4-dihydro-1,3-benzoxazin-8-yl]-5-fluoro-2-(3-oxa-8-azabicyclo[3.2.1]octan-8-yl)benzoic acid], the pEC50 is 8.44.

As for `O=C(O)c1cc(F)c(-c2cccc3c2OCN(C(=O)c2c(Cl)cc(N4CCOCC4)cc2Cl)C3)cc1N1C2CCC1COC2` [Compound 4-19, 4-[3-(2,6-Dichloro-4-morpholin-4-ylbenzoyl)-2,4-dihydro-1,3-benzoxazin-8-yl]-5-fluoro-2-(3-oxa-8-azabicyclo[3.2.1]octan-8-yl)benzoic acid], the pEC50 is 8.54.

With `O=C(O)c1ccc(-c2cccc3c2OCN(C(=O)c2c(Cl)cc(N4CC[C@@H](O)C4)cc2Cl)C3)cc1N1CCOCC1` [Compound 4-20, 4-[3-[2,6-Dichloro-4-[(3R)-3-hydroxypyrrolidin-1-yl]benzoyl]-2,4-dihydro-1,3-benzoxazin-8-yl]-2-morpholin-4-ylbenzoic acid], the negative logarithm of the EC50 (pEC50) is 8.52.

`O=C(O)c1ccc(-c2cccc3c2OCN(C(=O)c2c(Cl)cc(N4CC5(COC5)C4)cc2Cl)C3)cc1N1CCOCC1` [Compound 4-21, 4-[3-[2,6-Dichloro-4-(2-oxa-6-azaspiro[3.3]heptan-6-yl)benzoyl]-2,4-dihydro-1,3-benzoxazin-8-yl]-2-morpholin-4-ylbenzoic acid] gave a pEC50 of 8.13.

Molecule `CN1CCCN(c2cc(Cl)c(C(=O)N3COc4c(cccc4-c4cc(N5CCOCC5)c(C(=O)O)cc4F)C3)c(Cl)c2)CC1` [Compound 4-22, 4-[3-[2,6-Dichloro-4-(4-methyl-1,4-diazepan-1-yl)benzoyl]-2,4-dihydro-1,3-benzoxazin-8-yl]-5-fluoro-2-morpholin-4-ylbenzoic acid] had a pEC50 of 8.74.

Consider `COCCN(C)c1cc(Cl)c(C(=O)N2COc3c(cccc3-c3cc(N4CCOCC4)c(C(=O)O)cc3F)C2)c(Cl)c1` [Compound 4-23, 4-[3-[2,6-Dichloro-4-[2-methoxyethyl(methyl)amino]benzoyl]-2,4-dihydro-1,3-benzoxazin-8-yl]-5-fluoro-2-morpholin-4-ylbenzoic acid], for which the pEC50 is 8.82.

The molecule `O=C(O)c1cc(F)c(-c2cccc3c2OCN(C(=O)c2c(Cl)cc(N4CC5COCC5C4)cc2Cl)C3)cc1N1CCOCC1` (stereo not shown) [Compound 4-24, 4-[3-[4-(1,3,3a,4,6,6a-Hexahydrofuro[3,4-c]pyrrol-5-yl)-2,6-dichlorobenzoyl]-2,4-dihydro-1,3-benzoxazin-8-yl]-5-fluoro-2-morpholin-4-ylbenzoic acid] showed a pEC50 of 8.57.

The molecule `COCCN1CCCN(c2cc(Cl)c(C(=O)N3COc4c(cccc4-c4cc(N5CCOCC5)c(C(=O)O)cc4F)C3)c(Cl)c2)CC1` [Compound 4-25, 4-[3-[2,6-Dichloro-4-[4-(2-methoxyethyl)-1,4-diazepan-1-yl]benzoyl]-2,4-dihydro-1,3-benzoxazin-8-yl]-5-fluoro-2-morpholin-4-ylbenzoic acid] showed a negative-log EC50 (pEC50) of 8.72.

For `O=C(O)c1cc(F)c(-c2cccc3c2OCN(C(=O)c2c(Cl)cc(N4CCC5(CCOCC5)C4)cc2Cl)C3)cc1N1CCOCC1` [Compound 4-26, 4-[3-[2,6-Dichloro-4-(8-oxa-2-azaspiro[4.5]decan-2-yl)benzoyl]-2,4-dihydro-1,3-benzoxazin-8-yl]-5-fluoro-2-morpholin-4-ylbenzoic acid], the pEC50 is 8.09.

`O=C(O)c1cc(F)c(-c2cccc3c2OCN(C(=O)c2c(Cl)cc(N4CCC(CO)CC4)cc2Cl)C3)cc1N1CCOCC1` [Compound 4-27, 4-[3-[2,6-Dichloro-4-[4-(hydroxymethyl)piperidin-1-yl]benzoyl]-2,4-dihydro-1,3-benzoxazin-8-yl]-5-fluoro-2-morpholin-4-ylbenzoic acid]: the pEC50 is 8.96. This pEC50 lies 0.87 log units higher than the previous one.

For the molecule `O=C(O)c1cc(F)c(-c2cccc3c2OCN(C(=O)c2c(Cl)cc(N4CC[C@@H](O)C4)cc2Cl)C3)cc1N1CCOCC1` [Compound 4-28, 4-[3-[2,6-Dichloro-4-[(3R)-3-hydroxypyrrolidin-1-yl]benzoyl]-2,4-dihydro-1,3-benzoxazin-8-yl]-5-fluoro-2-morpholin-4-ylbenzoic acid], the pEC50 is 8.80.

For the molecule `CC(C)(C)OC(=O)N1CCN(c2cc(Cl)c(C(=O)N3COc4c(cccc4-c4cc(N5CCOCC5)c(C(=O)O)cc4F)C3)c(Cl)c2)CC1` [Compound 4-29, 4-[3-[2,6-Dichloro-4-[4-[(2-methylpropan-2-yl)oxycarbonyl]piperazin-1-yl]benzoyl]-2,4-dihydro-1,3-benzoxazin-8-yl]-5-fluoro-2-morpholin-4-ylbenzoic acid], the pEC50 is 8.68.

In turn, `COCC1CN(c2cc(Cl)c(C(=O)N3COc4c(cccc4-c4cc(N5CCOCC5)c(C(=O)O)cc4F)C3)c(Cl)c2)CCN1C` (stereo not shown) [Compound 4-30, 4-[3-[2,6-Dichloro-4-[3-(methoxymethyl)-4-methylpiperazin-1-yl]benzoyl]-2,4-dihydro-1,3-benzoxazin-8-yl]-5-fluoro-2-morpholin-4-ylbenzoic acid] had a pEC50 of 8.96.

`CN1CCN(c2cc(Cl)c(C(=O)N3COc4c(cccc4-c4cc(N5CCOCC5)c(C(=O)O)cc4F)C3)c(Cl)c2)CC12CC2` [Compound 4-31, 4-[3-[2,6-Dichloro-4-(4-methyl-4,7-diazaspiro[2.5]octan-7-yl)benzoyl]-2,4-dihydro-1,3-benzoxazin-8-yl]-5-fluoro-2-morpholin-4-ylbenzoic acid] gave a negative-log EC50 (pEC50) of 8.92.

Take `Cc1cc(-c2cccc3c2OCN(C(=O)c2c(Cl)cc(N4CCOCC4)cc2Cl)C3)cc(N2CCOCC2)c1C(=O)O` [Compound 4-32, 4-[3-(2,6-Dichloro-4-morpholin-4-ylbenzoyl)-2,4-dihydro-1,3-benzoxazin-8-yl]-2-methyl-6-morpholin-4-ylbenzoic acid]: the pEC50 is 8.16.

In turn, `O=C(O)c1cc(F)c(-c2cccc3c2OCN(C(=O)c2ccc(N4CC5(COC5)C4)cc2Cl)C3)cc1N1CCOCC1` [Compound 4-33, 4-[3-[2-Chloro-4-(2-oxa-6-azaspiro[3.3]heptan-6-yl)benzoyl]-2,4-dihydro-1,3-benzoxazin-8-yl]-5-fluoro-2-morpholin-4-ylbenzoic acid] gave a pEC50 of 8.29.

The molecule `O=C(O)c1cc(F)c(-c2cccc3c2OCN(C(=O)c2c(Cl)cc(OC[C@H]4CCCO4)cc2Cl)C3)cc1N1C2CCC1COC2` [Compound 4-34, 4-[3-[2,6-Dichloro-4-[[(2R)-oxolan-2-yl]methoxy]benzoyl]-2,4-dihydro-1,3-benzoxazin-8-yl]-5-fluoro-2-(3-oxa-8-azabicyclo[3.2.1]octan-8-yl)benzoic acid] gave a negative-log EC50 (pEC50) of 8.42.

The molecule `CC(C)(O)CCOc1cc(Cl)c(C(=O)N2COc3c(cccc3-c3cc(N4C5CCC4COC5)c(C(=O)O)cc3F)C2)c(Cl)c1` [Compound 4-35, 4-[3-[2,6-Dichloro-4-(3-hydroxy-3-methylbutoxy)benzoyl]-2,4-dihydro-1,3-benzoxazin-8-yl]-5-fluoro-2-(3-oxa-8-azabicyclo[3.2.1]octan-8-yl)benzoic acid] had a pEC50 of 7.70.

The molecule `O=C(O)c1cc(F)c(-c2cccc3c2OCN(C(=O)c2c(Cl)cc(OC[C@H]4CCOC4)cc2Cl)C3)cc1N1C2CCC1COC2` [Compound 4-38, 4-[3-[2,6-Dichloro-4-[[(3S)-oxolan-3-yl]methoxy]benzoyl]-2,4-dihydro-1,3-benzoxazin-8-yl]-5-fluoro-2-(3-oxa-8-azabicyclo[3.2.1]octan-8-yl)benzoic acid] gave a pEC50 of 8.29.

In the case of `CCOc1cc(Cl)c(C(=O)N2COc3c(cccc3-c3cc(N4C5CCC4COC5)c(C(=O)O)cc3F)C2)c(Cl)c1` [Compound 4-39, 4-[3-(2,6-Dichloro-4-ethoxybenzoyl)-2,4-dihydro-1,3-benzoxazin-8-yl]-5-fluoro-2-(3-oxa-8-azabicyclo[3.2.1]octan-8-yl)benzoic acid], the pEC50 was 8.16. This pEC50 and that of the molecule before are within 0.2 log units of each other.

`COc1cc(Cl)c(C(=O)N2COc3c(cccc3-c3cc(N4C5CCC4COC5)c(C(=O)O)cc3F)C2)c(Cl)c1` [Compound 4-40, 4-[3-(2,6-Dichloro-4-methoxybenzoyl)-2,4-dihydro-1,3-benzoxazin-8-yl]-5-fluoro-2-(3-oxa-8-azabicyclo[3.2.1]octan-8-yl)benzoic acid] gave a pEC50 of 8.05. The pEC50 values of the last two molecules are within 0.2 log units of each other.

As for `O=C(O)c1cc(F)c(-c2cccc3c2OCN(C(=O)c2c(Cl)cc(OCC4CCOCC4)cc2Cl)C3)cc1N1C2CCC1COC2` [Compound 4-41, 4-[3-[2,6-Dichloro-4-(oxan-4-ylmethoxy)benzoyl]-2,4-dihydro-1,3-benzoxazin-8-yl]-5-fluoro-2-(3-oxa-8-azabicyclo[3.2.1]octan-8-yl)benzoic acid], the pEC50 is 8.33.

In turn, `O=C(O)c1cc(F)c(-c2cccc3c2OCN(C(=O)c2c(Cl)cc(OC[C@@H]4COCCO4)cc2Cl)C3)cc1N1C2CCC1COC2` [Compound 4-42, 4-[3-[2,6-Dichloro-4-[[(2S)-1,4-dioxan-2-yl]methoxy]benzoyl]-2,4-dihydro-1,3-benzoxazin-8-yl]-5-fluoro-2-(3-oxa-8-azabicyclo[3.2.1]octan-8-yl)benzoic acid] had a pEC50 of 8.36.

In turn, `O=C(O)c1ccc(-c2cccc3c2OCN(C(=O)c2c(Cl)cc(OCCCCO)cc2Cl)C3)cc1N1CCOCC1` [Compound 4-43, 4-[3-[2,6-Dichloro-4-(4-hydroxybutoxy)benzoyl]-2,4-dihydro-1,3-benoxazin-8-yl]-2-morpholin-4-ylbenzoic acid] gave a pEC50 of 8.13.

`CN(C)CCOc1cc(Cl)c(C(=O)N2COc3c(cccc3-c3ccc(C(=O)O)c(N4CCOCC4)c3)C2)c(Cl)c1` [Compound 4-44, 4-[3-[2,6-Dichloro-4-[2-(dimethylamino)ethoxy]benzoyl]-2,4-dihydro-1,3-benzoxazin-8-yl]-2-morpholin-4-ylbenzoic acid]: the negative-log EC50 (pEC50) is 7.80. This pEC50 lies 0.33 log units lower than the previous one.
